Among the data in PubChem BioAssay AID1259407 (Chemical Carcinogenesis Research Information System (CCRIS), 2018) are mutagenic call values, retold here.

This data set deals with CCRIS mutagenicity, Ames/micronucleus/aberration tests. Description: CCRIS mutagenicity studies.
[1] abbreviates: Test System: AMES SALMONELLA TYPHIMURIUM, Strain/Indicator: TA98, Metabolic Activation: NONE, Method: STANDARD PLATE.
Where [2] appears, read: Test System: AMES SALMONELLA TYPHIMURIUM, Strain/Indicator: TA100, Metabolic Activation: NONE, Method: STANDARD PLATE.
[3] abbreviates: Test System: AMES SALMONELLA TYPHIMURIUM, Strain/Indicator: TA98, Metabolic Activation: NONE, Method: PREINCUBATION
Setting [4] is: Test System: AMES SALMONELLA TYPHIMURIUM, Strain/Indicator: TA100, Metabolic Activation: NONE, Method: PREINCUBATION

The source made the active and inactive calls. The rule behind the calls is not given here.

`CC(=O)Nc1ccc(S(=O)(=O)O)c2cc(S(=O)(=O)O)c(N=Nc3ccc(N=Nc4ccc(S(=O)(=O)O)cc4)c4ccc(S(=O)(=O)O)cc34)c(O)c12`: the mutagenic call reads like this: (Test System: AMES SALMONELLA TYPHIMURIUM, Strain/Indicator: TA98, Metabolic Activation: HAMSTER, LIVER, S-9, AROCLOR 1254, Method: STANDARD PLATE) “inactive; negative”; under setting [1], “inactive; negative”; (Test System: AMES SALMONELLA TYPHIMURIUM, Strain/Indicator: TA98, Metabolic Activation: RAT, LIVER, S-9, AROCLOR 1254, Method: STANDARD PLATE) “inactive; negative”; (Test System: AMES SALMONELLA TYPHIMURIUM, Strain/Indicator: TA100, Metabolic Activation: HAMSTER, LIVER, S-9, AROCLOR 1254, Method: STANDARD PLATE) “inactive; negative”; under setting [2], “inactive; negative”; (Test System: AMES SALMONELLA TYPHIMURIUM, Strain/Indicator: TA100, Metabolic Activation: RAT, LIVER, S-9, AROCLOR 1254, Method: STANDARD PLATE) “inactive; negative”. In addition, the mutagenic call reads like this: (Test System: AMES SALMONELLA TYPHIMURIUM, Strain/Indicator: TA1535, Metabolic Activation: HAMSTER, LIVER, S-9, AROCLOR 1254, Method: STANDARD PLATE) “inactive; negative”; (Test System: AMES SALMONELLA TYPHIMURIUM, Strain/Indicator: TA1535, Metabolic Activation: NONE, Method: STANDARD PLATE) “inactive; negative”; (Test System: AMES SALMONELLA TYPHIMURIUM, Strain/Indicator: TA1535, Metabolic Activation: RAT, LIVER, S-9, AROCLOR 1254, Method: STANDARD PLATE) “inactive; negative”; (Test System: AMES SALMONELLA TYPHIMURIUM, Strain/Indicator: TA1537, Metabolic Activation: HAMSTER, LIVER, S-9, AROCLOR 1254, Method: STANDARD PLATE) “inactive; negative”; (Test System: AMES SALMONELLA TYPHIMURIUM, Strain/Indicator: TA1537, Metabolic Activation: NONE, Method: STANDARD PLATE) “inactive; negative”; (Test System: AMES SALMONELLA TYPHIMURIUM, Strain/Indicator: TA1537, Metabolic Activation: RAT, LIVER, S-9, AROCLOR 1254, Method: STANDARD PLATE) “inactive; negative”. For the same molecule, the mutagenic call is “inactive; negative. reevaluation of results: negative” (Test System: MOUSE LYMPHOMA, Strain/Indicator: L5178Y (TK+/TK-), Metabolic Activation: NONE, Method: SUSPENSION/PLATE) and “active; positive. reevaluation of results: equivocal” (Test System: MOUSE LYMPHOMA, Strain/Indicator: L5178Y (TK+/TK-), Metabolic Activation: RAT, LIVER, S-9, AROCLOR 1254, Method: SUSPENSION/PLATE).

As to `Cc1c(/C=N/OCc2cccc([N+](=O)[O-])c2)c2cc([N+](=O)[O-])ccc2n1Cc1ccccc1`, the mutagenic call was “active; positive” under setting [1]; “active; positive” (Test System: AMES SALMONELLA TYPHIMURIUM, Strain/Indicator: TA98, Metabolic Activation: RAT, LIVER, S-9, PHENOBARBITAL AND BETA-NAPHTHOFLAVONE, Method: STANDARD PLATE); “active; positive” under setting [2]; “active; positive” (Test System: AMES SALMONELLA TYPHIMURIUM, Strain/Indicator: TA100, Metabolic Activation: RAT, LIVER, S-9, PHENOBARBITAL AND BETA-NAPHTHOFLAVONE, Method: STANDARD PLATE).

Turning to `CC(=O)c1ccc2c(c1)C(=O)C1(CC1)O2`, the mutagenic call is, setting by setting: (Test System: AMES SALMONELLA TYPHIMURIUM, Strain/Indicator: TA98, Metabolic Activation: NONE) “inactive; negative”; (Test System: AMES SALMONELLA TYPHIMURIUM, Strain/Indicator: TA98, Metabolic Activation: S-9) “inactive; negative”; (Test System: AMES SALMONELLA TYPHIMURIUM, Strain/Indicator: TA100, Metabolic Activation: NONE) “inactive; negative”; (Test System: AMES SALMONELLA TYPHIMURIUM, Strain/Indicator: TA100, Metabolic Activation: S-9) “inactive; negative”; (Test System: AMES SALMONELLA TYPHIMURIUM, Strain/Indicator: TA1535, Metabolic Activation: NONE) “inactive; negative”; (Test System: AMES SALMONELLA TYPHIMURIUM, Strain/Indicator: TA1535, Metabolic Activation: S-9) “inactive; negative”. The mutagenic call reads like this: (Test System: AMES SALMONELLA TYPHIMURIUM, Strain/Indicator: TA1537, Metabolic Activation: NONE) “inactive; negative”; (Test System: AMES SALMONELLA TYPHIMURIUM, Strain/Indicator: TA1537, Metabolic Activation: S-9) “inactive; negative”; (Test System: E. COLI, Strain/Indicator: WP2 (HCR), Metabolic Activation: NONE) “inactive; negative”; (Test System: E. COLI, Strain/Indicator: WP2 (HCR), Metabolic Activation: S-9) “inactive; negative”.

Take `Cc1nc2ccc(N)cc2nc1C`: the mutagenic call was “active; positive” under setting [3]; “active; positive” (Test System: AMES SALMONELLA TYPHIMURIUM, Strain/Indicator: TA98, Metabolic Activation: RAT, LIVER, S-9, PCB, Method: PREINCUBATION); “inactive; negative” under setting [4]; “active; positive” (Test System: AMES SALMONELLA TYPHIMURIUM, Strain/Indicator: TA100, Metabolic Activation: RAT, LIVER, S-9, PCB, Method: PREINCUBATION).

Turning to `O=C(Cl)c1ccccc1F`, the mutagenic call is, setting by setting: (Test System: AMES SALMONELLA TYPHIMURIUM, Strain/Indicator: TA98, Metabolic Activation: HAMSTER, LIVER, S-9, AROCLOR 1254, Method: PREINCUBATION) “active; positive”; under setting [3], “inactive; negative”; (Test System: AMES SALMONELLA TYPHIMURIUM, Strain/Indicator: TA98, Metabolic Activation: RAT, LIVER, S-9, AROCLOR 1254, Method: PREINCUBATION) “active; positive”; (Test System: AMES SALMONELLA TYPHIMURIUM, Strain/Indicator: TA100, Metabolic Activation: HAMSTER, LIVER, S-9, AROCLOR 1254, Method: PREINCUBATION) “active; positive”; under setting [4], “inactive; negative”; (Test System: AMES SALMONELLA TYPHIMURIUM, Strain/Indicator: TA100, Metabolic Activation: RAT, LIVER, S-9, AROCLOR 1254, Method: PREINCUBATION) “active; positive”. The mutagenic call (Test System: AMES SALMONELLA TYPHIMURIUM, Strain/Indicator: TA1535, Metabolic Activation: HAMSTER, LIVER, S-9, AROCLOR 1254, Method: PREINCUBATION) was “inactive; negative”; the mutagenic call (Test System: AMES SALMONELLA TYPHIMURIUM, Strain/Indicator: TA1535, Metabolic Activation: NONE, Method: PREINCUBATION) was “inactive; negative”; the mutagenic call (Test System: AMES SALMONELLA TYPHIMURIUM, Strain/Indicator: TA1535, Metabolic Activation: RAT, LIVER, S-9, AROCLOR 1254, Method: PREINCUBATION) was “inactive; negative”; the mutagenic call (Test System: AMES SALMONELLA TYPHIMURIUM, Strain/Indicator: TA1537, Metabolic Activation: HAMSTER, LIVER, S-9, AROCLOR 1254, Method: PREINCUBATION) was “inactive; negative”; the mutagenic call (Test System: AMES SALMONELLA TYPHIMURIUM, Strain/Indicator: TA1537, Metabolic Activation: NONE, Method: PREINCUBATION) is “inactive; negative”; the mutagenic call (Test System: AMES SALMONELLA TYPHIMURIUM, Strain/Indicator: TA1537, Metabolic Activation: RAT, LIVER, S-9, AROCLOR 1254, Method: PREINCUBATION) was “inactive; negative”.

As for `CO[C@@]12[C@H](CO)C3=C(C(=O)C(C)=C(N)C3=O)N1C[C@@H]1N[C@@H]12`, the mutagenic call (Test System: CHINESE HAMSTER V-79, Strain/Indicator: V-79/6-THIOGUANINE, Metabolic Activation: NONE, Method: FLASK ASSAY) is “active; positive”.

Consider `O=[N+]([O-])c1ccc2[nH]ccc2c1`, for which, under setting [1], the mutagenic call is “active; positive”.
